In assay [1] the target is BTK (Homo sapiens, UniProt Q06187). Put plainly: BTK Kinase Test. It is filed as biochemical. As to conditions: BTK kinase inhibitory activity; enzyme with compound 30 min, ATP 50 μM, ULight poly GT substrate. How it is done:
Dilute 350 ng/uL BTK mother solution with kinase buffer solution (50 mM HEPES, 10 mM MgCl2, 2 mM DTT, 1 mM EGTA, 0.01% Tween 20), and add 6 μL 1.67×0.134 ng/μL working solution (final concentration 0.08 ng/μL), using the nanoliter sampler, add different compounds dissolved by DMSO into the pores, so that the final concentration of the compound is 1000 nM-0.244 nM, and the final concentration of the positive drug is 50 nM-0.0122 nM. Four times the gradient, a total of seven concentrations are available. At the same time, set up blank control pores (without enzyme) and negative control pores (with enzyme, with solvent DMSO), and set up two double pores. After the enzyme reacts with compound or solvent for 30 min, 5×250 μM ATP (final concentration is 50 μM) and 5×0.5 μM Substrate (final concentration 0.1 μμM. ULight poly GT), mix at 1:1, 4 per hole μL is added into the hole; after sealing, add […] to each hole after reacting at room temperature for 2 hours μL 4×8 nM detection reagent (final concentration is 2 nM, Ab), incubate at room temperature for 1 hour; PE instrument reading board (excitation […], emission 665 nm). Calculate the inhibition rate and calculate the IC50 value.

Assay [2] relates to Diffuse large B cell lymphoma cell strain TMD-8. Put plainly: Tumor Cell Proliferation Inhibition Assay (CellTiter-Glo). It is filed as cell-based. As to conditions: Homo sapiens, TMD8; TMD-8 cells, incubated with compound 72 hours, 10% fetal calf serum, ATP content. How it is done:
Cell viability was evaluated by measuring a content of triphosadenine (ATP) by using CellTiter-Glo luminescent cell viability assay kit method (Promega, #G7572, Madison, WI). Diffuse large B cell lymphoma cell strain TMD-8 cell strain is purchased from American Type Culture Collection (ATCC). After the cells were digested from a cell culture dish by pancreatin and re-suspended by DPBS culture medium, a Scepter automatic cell counter (Millipore, #PHCC00000) was used for counting to measure a cell density. The cells were diluted to be a solution containing 44,000 cells per milliliter. The cell solution with the adjusted density was added into a cell assay plate with 90 μl per well. The well plate was placed to an incubator with 5% CO2 at 37° C. to be incubated for 24 hours and then added with the compound to be tested with different concentrations. The cells and the compound were together incubated for 72 hours in the presence of 10% fetal calf serum. The content of ATP was measured by using CellTiter-Glo® Luminescent Cell Viability Assay kit (referring to manufacturer's instruction) to evaluate the inhibition to the cell growth. Briefly speaking, each well was added with 30 μl of CellTiter-Glo® reagent, the plate was shaken for 10 minutes to induce the cells to be lysed, and fluorescence signal was detected and recorded by fluorescence/chemiluminescence analyzer Fluoroskan Ascent FL (Thermo Scientific Fluoroskan Ascent FL). The maximal signal value was obtained from cells processed by dimethyl sulfoxide (DMSO) for 72 or 120 hours. The minimal signal value obtained from separate culture medium (wherein the number of cells was zero) was defined as 0. Inhibition ratio %=(maximal signal value−compound signal value)/(maximal signal value−minimal signal value)×100%. The data was processed by using GraphPad Prism V5.0 (GraphPad Software, San Diego, CA) software. IC50 value was fitted and calculated via S-shaped dose-response curve.

Sequence of BTK (Q06187 whole entry): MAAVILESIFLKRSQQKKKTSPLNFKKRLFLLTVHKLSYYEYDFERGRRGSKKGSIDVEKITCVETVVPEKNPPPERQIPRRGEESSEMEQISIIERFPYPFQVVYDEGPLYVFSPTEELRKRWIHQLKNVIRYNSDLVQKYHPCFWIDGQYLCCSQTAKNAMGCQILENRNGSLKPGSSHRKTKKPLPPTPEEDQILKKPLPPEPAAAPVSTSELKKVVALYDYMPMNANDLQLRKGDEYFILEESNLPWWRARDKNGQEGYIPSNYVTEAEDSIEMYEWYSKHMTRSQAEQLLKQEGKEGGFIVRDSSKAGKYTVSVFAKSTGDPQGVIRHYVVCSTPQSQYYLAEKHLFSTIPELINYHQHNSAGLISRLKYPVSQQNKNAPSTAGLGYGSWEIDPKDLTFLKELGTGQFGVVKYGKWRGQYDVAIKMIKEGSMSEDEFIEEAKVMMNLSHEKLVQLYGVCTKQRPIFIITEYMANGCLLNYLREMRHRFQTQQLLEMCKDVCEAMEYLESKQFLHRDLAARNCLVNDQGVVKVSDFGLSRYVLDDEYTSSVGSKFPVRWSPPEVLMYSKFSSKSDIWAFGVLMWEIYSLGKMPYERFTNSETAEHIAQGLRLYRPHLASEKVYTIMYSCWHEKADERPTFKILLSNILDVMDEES

As for `CC#CC(=O)N[C@H]1CCCN(c2nc(-c3ccc(Oc4ccccc4)cc3)c(C(N)=O)c3[nH]c(=O)[nH]c23)C1` [Compound 1, (S)-4-(3-(but-2-ynamido)piperidin-1-yl)-2-oxo-6-(4-phenoxyphenyl)-2,3-dihydro-1H-imidazo[4,5-c]pyridine-7-carboxamide], in assay [1], the IC50 was at most 10 nM.
Turning to `CC#CC(=O)N[C@H]1CCCN(c2nc(-c3ccc(Oc4ccccc4)cc3)c(C(N)=O)c3[nH]ncc23)C1` [Compound 2, (S)-4-(3-(but-2-ynamido)piperidin-1-yl)-6-(4-phenoxyphenyl)-1H-pyrazolo [4,5-c]pyridine-7-carboxamide], the IC50 in assay [1] is at most 10 nM.
For the molecule `C=CC(=O)N[C@H]1CCCN(c2nc(-c3ccc(Oc4ccccc4)cc3)c(C(N)=O)c3[nH]c(=O)[nH]c23)C1` [Compound 3, (S)-4-(3-acrylamidopiperidin-1-yl)-2-oxo-6-(4-phenoxyphenyl)-2,3-dihydro-1H-imidazo[4,5-c]pyridine-7-carboxamide], the concentration for half-maximal inhibition (IC50) in assay [1] was at most 10 nM.
On the same count and under the same terms, as for `CC#CC(=O)N[C@H]1CCN(c2nc(-c3ccc(Oc4ccccc4)cc3)c(C(N)=O)c3[nH]c(=O)[nH]c23)C1` [Compound 5, (S)-4-(3-(but-2-ynamido)pyrrolidin-1-yl)-2-oxo-6-(4-phenoxyphenyl)-2,3-dihydro-1H-imidazo[4,5-c]pyridine-7-carboxamide], the figure is at most 10 nM; as for `CC#CC(=O)N[C@@H]1CCCN(c2nc(-c3ccc(Oc4ccccc4)cc3)c(C(N)=O)c3[nH]c(=O)[nH]c23)C1` [Compound 6, (R)-4-(3-(but-2-ynamido)piperidin-1-yl)-2-oxo-6-(4-phenoxyphenyl)-2,3-dihydro-1H-imidazo[4,5-c]pyridine-7-carboxamide], at most 10 nM.
With `CC#CC(=O)N[C@@H]1CCN(c2nc(-c3ccc(Oc4ccccc4)cc3)c(C(N)=O)c3[nH]c(=O)[nH]c23)C1` [Compound 9, (R)-4-(3-(but-2-ynamido)pyrrolidin-1-yl)-2-oxo-6-(4-phenoxyphenyl)-2,3-dihydro-1H-imidazo[4,5-c]pyridine-7-carboxamide], the concentration for half-maximal inhibition (IC50) in assay [1] was at most 10 nM.
On the same count and under the same terms, as for `CC#CC(=O)N[C@H]1CCCN(c2nc(-c3ccc(Oc4ccccc4)cc3)c(C(N)=O)c3[nH]cnc23)C1` [Compound 18, (S)-4-(3-(but-2-ynamido)piperidin-1-yl)-6-(4-phenoxyphenyl)-1H-imidazo[4,5-c]pyridine-7-carboxamide], the figure is at most 10 nM; as for `CC#CC(=O)N[C@H]1CCCN(c2nc(-c3ccc(Oc4ccccc4)cc3)c(C(N)=O)c3[nH]c(C)nc23)C1` [Compound 19, (S)-4-(3-(but-2-ynamido)piperidin-1-yl)-2-methyl-6-(4-phenoxyphenyl)-1H-imidazo[4,5-c]pyridine-7-carboxamide], at most 10 nM.
As for `C=CC(=O)N1CCC(c2nc(-c3ccc(Oc4ccccc4)cc3)c(C(N)=O)c3[nH]c(=O)[nH]c23)CC1` [Compound 20, 4-(1-acryloylpiperidin-4-yl)-2-oxo-6-(4-phenoxyphenyl)-2,3-dihydro-1H-imidazo[4,5-c]pyridine-7-carboxamide], in assay [1], the IC50 is at most 10 nM.
With `CC#CC(=O)N[C@H]1CCCN(c2nc(-c3ccc(Oc4ccccc4)cc3)c(C(N)=O)c3[nH]ccc23)C1` [Compound 23, (S)-4-(3-(but-2-ynamido)piperidin-1-yl)-6-(4-phenoxyphenyl)-1H-pyrrolo[3,2-c]pyridine-7-carboxamide], the IC50 in assay [2] and in assay [1] was at most 10 nM each time.
In the case of `CC#CC(=O)N[C@@H]1CCCN(c2nc(-c3ccc(Oc4ccccc4)cc3)c(C(N)=O)c3[nH]ccc23)C1` [Compound 24, (R)-4-(3-(but-2-ynamido)piperidin-1-yl)-6-(4-phenoxyphenyl)-1H-pyrrolo[3,2-c]pyridine-7-carboxamide], the IC50 in assay [1] was at most 10 nM.
With `C=CC(=O)N1CCC(c2nc(-c3ccc(Oc4ccccc4)cc3)c(C(N)=O)c3[nH]ccc23)CC1` [Compound 25, 4-(1-acryloylpiperidin-4-yl)-6-(4-phenoxyphenyl)-1H-pyrrolo [3,2-c]pyridine-7-carboxamide], the half-inhibitory concentration (IC50) in assay [2] and in assay [1] was at most 10 nM each time.
On to `C=CC(=O)N1CCC[C@H](c2nc(-c3ccc(Oc4ccccc4)cc3)c(C(N)=O)c3[nH]ccc23)C1` [Compound 26, (S)-4-(1-acryloylpiperidin-3-yl)-6-(4-phenoxyphenyl)-1H-pyrrolo[3,2-c]pyridine-7-carboxamide], for which the concentration for half-maximal inhibition (IC50) in assay [2] and in assay [1] was at most 10 nM throughout.
Turning to `C=CC(=O)N1CCC[C@@H](c2nc(-c3ccc(Oc4ccccc4)cc3)c(C(N)=O)c3[nH]ccc23)C1` [Compound 27, (R)-4-(1-acryloylpiperidin-3-yl)-6-(4-phenoxyphenyl)-1H-pyrrolo[3,2-c]pyridine-7-carboxamide], the half-inhibitory concentration (IC50) in assay [2] and in assay [1] was at most 10 nM throughout.
Consider `CC#CC(=O)N[C@H]1CCCN(c2ncc(C(N)=O)c3[nH]c(=O)c(=O)[nH]c23)C1` [Compound 28, (S)-5-(3-(but-2-ynamido)piperidin-1-yl)-2,3-dioxo-1,2,3,4-tetrahydropyrido[3,4-b]pyrazine-8-carboxamide], for which the half-maximal inhibitory concentration (IC50) in assay [1] was at most 10 nM.
Take `CC#CC(=O)N[C@H]1CCCN(c2ncc(C(N)=O)c3[nH]cnc23)C1` [Compound 36, (S)-4-(3-(but-2-ynamido)piperidin-1-yl)-1H-imidazo[4,5-c]pyridine-7-carboxamide]: the half-inhibitory concentration (IC50) in assay [1] was at most 10 nM.
For `CC#CC(=O)N[C@H]1CCCN(c2ncc(C(N)=O)c3[nH]c(=O)[nH]c23)C1` [Compound 38, (S)-4-(3-(but-2-ynamido)piperidin-1-yl)-2-oxo-2,3-dihydro-1H-imidazo[4,5-c]pyridine-7-carboxamide], the IC50 in assay [2] and in assay [1] was at most 10 nM each time.
Regarding `C=CC(=O)N1CCC(c2ncc(C(N)=O)c3[nH]c(=O)[nH]c23)CC1` [Compound 40, 4-(1-acryloylpiperidin-4-yl)-2-oxo-2,3-dihydro-1H-imidazo[4,5-c]pyridine-7-carboxamide], the IC50 in assay [2] and in assay [1] was at most 10 nM throughout.
“(R)-4-(3-(but-2-ynamido)piperidin-1-yl)-6-(4-phenoxyphenyl)-1H-pyrazolo [4,3-c]pyridine-7-carboxamide [Compound 7]”: the IC50 in assay [1] was at most 10 nM.
Still for that read-out and setting: as for “(R)-4-(3-acrylamidopiperidin-1-yl)-2-oxo-6-(4-phenoxyphenyl)-2,3-dihydro-1H-imidazo[4,5-c]pyridine-7-carboxamide [Compound 8]”, the figure is at most 10 nM; as for “(S)-4-(3-acrylamidopyrrolidin-1-yl)-2-oxo-6-(4-phenoxyphenyl)-2,3-dihydro-1H-imidazo[4,5-c]pyridine-7-carboxamide [Compound 4]”, at most 10 nM.

Source of the values: US20240190864A1 (YA THERAPEUTICS INC, priority 2021, published 2024).
